Results on 42 molecules are retold here after patent publication US20040242660A1, “Substituted oxazolidinones for combinational therapy” (priority 2001, published 2004).

human factor Xa (FXa), sequence (P00742 235-488 limits assumed): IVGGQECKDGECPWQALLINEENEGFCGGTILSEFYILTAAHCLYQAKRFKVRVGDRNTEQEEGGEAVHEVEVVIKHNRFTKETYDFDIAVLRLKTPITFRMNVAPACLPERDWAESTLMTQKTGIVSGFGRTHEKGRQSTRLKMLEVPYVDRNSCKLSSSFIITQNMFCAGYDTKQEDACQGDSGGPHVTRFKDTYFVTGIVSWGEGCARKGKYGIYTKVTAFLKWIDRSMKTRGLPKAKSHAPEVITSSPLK
human factor Xa (FXa), sequence (P00742 41-179 partner limits assumed): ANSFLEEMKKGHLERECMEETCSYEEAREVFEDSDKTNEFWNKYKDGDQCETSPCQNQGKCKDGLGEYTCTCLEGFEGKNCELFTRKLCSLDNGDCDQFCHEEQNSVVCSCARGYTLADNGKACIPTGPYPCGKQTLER

One experiment has as its target human factor Xa (FXa) (Homo sapiens, UniProt P00742). In words: Measurement of factor Xa inhibition (chromogenic substrate).
Conditions: not given
The experiment is classed as biochemical. How it is done:
a.1) Measurement of Factor Xa Inhibition
In this case, factor Xa eliminates p-nitroaniline from the chromogenic substrate.
The test substances were dissolved in various concentrations in DMSO and incubated with human FXa (0.5 nmol/l dissolved in 50 mmol/l tris buffer [C,C,C-tris(hydroxymethyl)-aminomethane], 150 mmol/l NaCl, 0.1% BSA (bovine serum albumine), pH=8,3) at 25° C. for 10 minutes. Pure DMSO serves as control.
In turn, `O=C(NCC1CN(c2ccc(N3CCCC(O)C3)c(F)c2)C(=O)O1)c1ccc(Cl)s1` (stereo not drawn) [Example 134] yielded an IC50 of 480 nM.

Regarding `O=C(NC[C@H]1CN(c2ccc(N3CCOCC3=O)c(F)c2)C(=O)O1)c1ccc(Br)s1` [Example 127], the midpoint of inhibition, the IC50, lay at 0.7 nM.

Molecule `O=C(NC[C@H]1CN(c2ccc(N3CCCC3=O)c(F)c2)C(=O)O1)c1ccc(Br)s1` [Example 128] registered an IC50 of 2 nM.

Turning to `O=C(NCC1CN(c2ccc(-n3cccc3)cc2)C(=O)O1)c1ccc(Cl)s1` (stereo not drawn) [Example 139], the IC50 worked out at 1700 nM.

`O=C(NCC1CN(c2ccc(NCCCO)cc2)C(=O)O1)c1ccc(Cl)s1` (stereo not drawn) [Example 138] had an IC50 of 420 nM.

Consider `NC1CCCN(c2ccc(N3CC(CNC(=O)c4ccc(Cl)s4)OC3=O)cc2F)C1` (stereo not drawn) [Example 137], for which it took 44 nM to reach half-maximal inhibition (IC50).

`CC1(N)CCN(c2ccc(N3CC(CNC(=O)c4ccc(Cl)s4)OC3=O)cc2F)CC1` (stereo not drawn) [Example 136]: the IC50 was determined as 1200 nM.

`O=C(NCC1CN(c2ccc(C3CCCCC3)cc2)C(=O)O1)c1ccc(Cl)s1` (stereo not drawn) [Example 131] showed an IC50 of 850 nM.

The molecule `O=C(NC[C@H]1CN(c2ccc(N3CCCC3=O)c(F)c2)C(=O)O1)c1ccc(Cl)s1` [Example 130] displayed a half-maximal inhibitory concentration (IC50) of 3.3 nM.

Regarding `O=C(NC[C@H]1CN(c2ccc(N3CCCCC3=O)cc2)C(=O)O1)c1ccc(Br)s1` [Example 129], half-maximal inhibition (IC50) required 1 nM.

Still in this experiment, the particulars now being: factor Xa inhibition.
The molecule `O=C(NCC1CN(c2ccc(N3CCCC3=O)cc2)C(=O)O1)c1ccc(Br)s1` (stereo not drawn) [Example 43, 5-Bromo-N-({2-oxo-3-[4-(2-oxo-1-pyrrolidinyl)phenyl]-1,3-oxazolidin-5-yl}methyl)-2-thiophenecarboxamide] returned an IC50 of 14 nM.

`O=C(NCC1CN(c2ccccc2)C(=O)O1)c1ccc(Cl)s1` (stereo not drawn) [Example 96, 5-Chloro-N-[(2-oxo-3-phenyl-1,3-oxazolidin-5-yl)methyl]-2-thiophenecarboxamide]: the IC50 came to 2000 nM.

Take `CC(C)(C)OC(=O)N1CC(=O)N(c2ccc(N3CC(CNC(=O)c4ccc(Cl)s4)OC3=O)cc2)C(=O)C1` (stereo not drawn) [Example 165, tert-Butyl 4-{4-[5-({[(5-chloro-2-thienyl)carbonyl]amino}methyl)-2-oxo-1,3-oxazolidin-3-yl]phenyl}-3,5-dioxo-1-piperazinecarboxylate]: the IC50 came to 2000 nM.

Turning to `O=C(NC[C@H]1CN(c2ccc(N3CC[S+]([O-])CC3)c(F)c2)C(=O)O1)c1ccc(Cl)s1` [Example 14, 5-Chloro-N-({(5S)-3-[3-fluoro-4-(1-oxo-1[lambda]^4,4-thiazinan-4-yl)phenyl]-2-oxo-1,3-oxazolidin-5-yl}methyl)-2-thiophenecarboxamide], the IC50 was 1100 nM.

`NCC(=O)Nc1ccc(N2CC(CNC(=O)c3ccc(Cl)s3)OC2=O)cc1` (stereo not drawn) [Example 150, 5-Chloro-N-({3-[4-(glycylamino)phenyl]-2-oxo-1,3-oxazolidin-5-yl}methyl)-2-thiophenecarboxamide] showed an IC50 of 2000 nM.

Molecule `CN(C)S(=O)(=O)c1ccc(N2C[C@H](CNC(=O)c3ccc(Cl)s3)OC2=O)cc1` [Example 40, 5-Chloro-N-[((5S)-3-{4-[(dimethylamino)sulfonyl]phenyl}-2-oxo-1,3-oxazolidin-5-yl)methyl]-2-thiophenecarboxamide] gave an IC50 of 90 nM.

In turn, `Nc1ccc(N2CC(CNC(=O)c3ccc(Cl)s3)OC2=O)cc1` (stereo not drawn) [Example 149, N-{[3-(4-Aminophenyl)-2-oxo-1,3-oxazolidin-5-yl]methyl}-5-chloro-2-thiophenecarboxamide] gave a half-inhibitory concentration (IC50) of 2000 nM.

For the molecule `Cc1noc(C)c1C(=O)Nc1ccc(N2CC(CNC(=O)c3ccc(Cl)s3)OC2=O)cc1` (stereo not drawn) [Example 158, N-{4-[5-({[(5-Chloro-2-thienyl)carbonyl]amino}methyl)-2-oxo-1,3-oxazolidin-3-yl]phenyl}-3,5-dimethyl-4-isoxazolecarboxamide], the IC50 turned out to be 460 nM.

On to `CC(=O)NCc1ccc(N2CC(CNC(=O)c3ccc(Cl)s3)OC2=O)cc1` (stereo not drawn) [Example 153, N-[(3-{4-[(Acetylamino)methyl]phenyl}-2-oxo-1,3-oxazolidin-5-yl)methyl]-5-chloro-2-thiophenecarboxamide], for which 600 nM corresponded to half-maximal inhibition (IC50).

The molecule `O=C(NC[C@H]1CN(c2ccc(S(=O)(=O)N3CCC3)cc2)C(=O)O1)c1ccc(Cl)s1` [Example 39, 5-Chloro-N-({(5S)-3-[4-(1-azetidinylsulfonyl)phenyl]-2-oxo-1,3-oxazolidin-5-yl}methyl)-2-thiophenecarboxamide] displayed an IC50 of 840 nM.

As to `COCC(=O)Nc1ccc(N2CC(CNC(=O)c3ccc(Cl)s3)OC2=O)cc1` (stereo not drawn) [Example 157, 5-Chloro-N-[(3-{4-[(methoxyacetyl)amino]phenyl}-2-oxo-1,3-oxazolidin-5-yl)-methyl]-2-thiophenecarboxamide], the IC50 was 730 nM.

The molecule `Cc1ccc(C(=O)NCC2CN(c3ccc(N4CCCC4=O)cc3)C(=O)O2)s1` (stereo not drawn) [Example 42, 5-Methyl-N-({2-oxo-3-[4-(2-oxo-1-pyrrolidinyl)phenyl]-1,3-oxazolidin-5-yl}methyl)-2-thiophenecarboxamide] registered an IC50 of 160 nM.

In turn, `O=C(NC[C@H]1CN(c2ccc(N3CCOCC3)c(Cl)c2)C(=O)O1)c1ccc(Cl)s1` [Example 37, 5-Chloro-N-{[(5S)-3-(3-chloro-4-morpholinophenyl)-2-oxo-1,3-oxazolidin-5-yl]methyl}-2-thiophenecarboxamide] returned an IC50 of 33 nM.

Consider `O=C(NC[C@H]1CN(c2ccc(N3CCCC3)cc2)C(=O)O1)c1ccc(Cl)s1` [Example 18, 5-Chloro-N-({(5S)-2-oxo-3-[4-(1-pyrrolidinyl)phenyl]-1,3-oxazolidin-5-yl}methyl)-2-thiophenecarboxamide], for which it took 40 nM to reach half-maximal inhibition (IC50).

For the molecule `CC(=O)Nc1ccc(N2CC(CNC(=O)c3ccc(Cl)s3)OC2=O)cc1` (stereo not drawn) [Example 155, N-({3-[4-(Acetylamino)phenyl]-2-oxo-1,3-oxazolidin-5-yl}methyl)-5-chloro-2-thiophenecarboxamide], the IC50 was determined as 1200 nM.

Turning to `O=C(NC[C@H]1CN(c2ccc(S(=O)(=O)N3CCOCC3)cc2)C(=O)O1)c1ccc(Cl)s1` [Example 38, 5-Chloro-N-({(5S)-3-[4-(4-morpholinylsulfonyl)phenyl]-2-oxo-1,3-oxazolidin-5-yl}methyl)-2-thiophenecarboxamide], the IC50 came out at 2000 nM.

With `CC(=O)N(c1ccc(N2CC(CNC(=O)c3ccc(Cl)s3)OC2=O)cc1)C1CC1` (stereo not drawn) [Example 98, N-[(3-{4-[Acetyl(cyclopropyl)amino]phenyl}-2-oxo-1,3-oxazolidin-5-yl)methyl]-5-chloro-2-thiophenecarboxanmide], the IC50 stood at 50 nM.

The molecule `NCc1ccc(N2CC(CNC(=O)c3ccc(Cl)s3)OC2=O)cc1` (stereo not drawn) [Example 148, N-({3-[4-(Aminomethyl)phenyl]-2-oxo-1,3-oxazolidin-5-yl}methyl)-5-chloro-2-thiophenecarboxamide] gave an IC50 of 2200 nM.

With `O=C(NC[C@H]1CN(c2ccc(N3CCC3=O)cc2)C(=O)O1)c1ccc(Cl)s1` [Example 164, 5-Chloro-N-({(5S)-2-oxo-3-[4-(2-oxo-1-azetidinyl)phenyl]-1,3-oxazolidin-5-yl}-methyl)-2-thiophenecarboxamide], the half-maximal inhibitory concentration (IC50) was 380 nM.

The molecule `O=C(NC[C@H]1CN(c2ccc(N3CCS(=O)(=O)CC3)c(F)c2)C(=O)O1)c1ccc(Cl)s1` [Example 15, 5-chloro-N-({(5S)-3-[4-(1,1-dioxo-1[lambda]^6,4-thiazinan-4-yl)-3-fluorophenyl]-2-oxo-1,3-oxazolidin-5-yl}methyl)-2-thiophenecarboxamide] gave an IC50 of 210 nM.

`NC(=O)NCc1ccc(N2CC(CNC(=O)c3ccc(Cl)s3)OC2=O)cc1` (stereo not drawn) [Example 154, N-{[3-(4-{[(Aminocarbonyl)amino]methyl}phenyl)-2-oxo-1,3-oxazolidin-5-yl]-methyl}-5-chloro-2-thiophenecarboxamide] yielded an IC50 of 1300 nM.

`CCN(CC)c1ccc(N2C[C@H](CNC(=O)c3ccc(Cl)s3)OC2=O)cc1` [Example 19, 5-Chloro-N-({(5S)-2-oxo-3-[4-(diethylamino)phenyl]-1,3-oxazolidin-5-yl}methyl)-2-thiophenecarboxamide] had an IC50 of 270 nM.

On to `O=C(NCC1CN(c2ccc(N3CCCS3(=O)=O)cc2)C(=O)O1)c1ccc(Cl)s1` (stereo not drawn) [Example 160, 5-Chloro-N-({3-[4-(1,1-dioxido-2-isothiazolidinyl)phenyl]-2-oxo1,3-oxazolidin-5-yl}methyl)-2-thiophenecarboxamide], for which the IC50 stood at 140 nM.

The molecule `O=C(Nc1ccc(N2CC(CNC(=O)c3ccc(Cl)s3)OC2=O)cc1)c1cccs1` (stereo not drawn) [Example 156, 5-Chloro-N-[(2-oxo-3-{4-[(2-thienylcarbonyl)amino]phenyl}-1,3-oxazolidin-5-yl)methyl]-2-thiophenecarboxamide] had an IC50 of 1300 nM.

On to `O=C(NCC1CN(c2ccc(S(=O)(=O)N3CCCC3)cc2)C(=O)O1)c1ccc(Cl)s1` (stereo not drawn) [Example 167, 5-Chloro-N-({2-oxo-3-[4-(1-pyrrolidinylsulfonyl)phenyl]-1,3-oxazolidin-5-yl}-methyl)-2-thiophenecarboxamide], for which inhibition was half-maximal at 500 nM (IC50).

Staying with this experiment, now noted: table of Examples 48-58.
In turn, `CC1Oc2cc(N3C[C@H](CNC(=O)c4ccc(Cl)s4)OC3=O)ccc2N(C)C1=O` (stereo partly drawn) [Example 50] had an IC50 of 1150 nM.

Consider `O=C(NC[C@H]1CN(c2ccc3c(c2)OCc2nccn2-3)C(=O)O1)c1ccc(Cl)s1` [Example 53], for which 740 nM corresponded to half-maximal inhibition (IC50).

Turning to `N#Cc1cc(N2C[C@H](CNC(=O)c3ccc(Cl)s3)OC2=O)ccc1N1CCCC1` [Example 54], 130 nM corresponded to half-maximal inhibition (IC50).

On to `O=C(NC[C@H]1CN(c2ccc(N3CCOC3=O)cc2)C(=O)O1)c1ccc(Cl)s1` [Example 55], for which half-maximal inhibition (IC50) was put at 40 nM.

`CN1C(=O)COc2cc(N3C[C@H](CNC(=O)c4ccc(Cl)s4)OC3=O)ccc21` [Example 51]: 1190 nM corresponded to half-maximal inhibition (IC50).

`Cc1ccc(C(=O)NC[C@H]2CN(c3ccc(N4CCCC4=O)cc3)C(=O)O2)s1` [Example 57] gave an IC50 of 580 nM.

`O=C(NC[C@H]1CN(c2ccc(N3CCCC3=O)cc2)C(=O)O1)c1ccc(Br)s1` [Example 56] displayed an IC50 of 4 nM.

By IC50 is commonly meant the concentration that gives 50% inhibition. Lower therefore signals higher potency.
